The values below come from patent publication US10294234B2, “HIV inhibitor compounds” (priority 2017, dated 2019).

The method of data set [1] in brief: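 Depletion measured by LC/MS/MS at 2, 12, 25, 45 and 65 minutes after 1 uM compound was added to liver microsomes (0.5 mg/mL; dog, rat, human) with NADPH-regenerating cofactor, in duplicate. In vitro t1/2 converted to Clint.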
The nature of the next data set: in vivo. As to conditions: rat, in vivo; for Vd / RAT PO F: male, SD; for Vd / RAT IV CL / RAT IV T1/2: iv; for RAT PO F: 2.5 mg/kg. Here is the method: Each dosing group consisted of 3 male naïve SD Rats. At dosing, the animals weighed between 0.27 to 0.32 kg. The animals were fasted overnight prior to dose administration. The test article was administered by intravenous infusion over 30 min. The rate of infusion was adjusted according to the body weight of each animal to deliver a dose of 0.5 or 1.0 mg/kg. For the oral dosing group, the test article was administered to animals by oral gavage administration. Serial venous blood samples (approximately 0.30 mL each) were taken at predose and 0.25, 0.48, 0.58, 0.75, 1.5, 3, 6, 8, 12 and 24 hours post dose for the IV dosing group animals. Blood samples were taken at predose, 0.25, 0.50, 1, 2, 4, 6, 8, 12 and 24 hours post dose for the oral group animals. The blood samples were collected into Vacutainer™ tubes containing EDTA-K2 as the anti-coagulant and were immediately placed on wet ice pending centrifugation for plasma. An LC/MS/MS method was used to measure the concentration of test compound in plasma. Non-compartmental pharmacokinetic analysis was performed on the plasma concentration-time data.

Data set [2] has as its system HIV-1 (IIIB) in MT-4 cells. Put plainly: MT-4 HIV assay. Type of data set: cell-based. As to conditions: Human immunodeficiency virus 1, MT4, 120 h. The method in brief: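 Antiviral activity was read by Cell Titer Glo after a 5-day, 37 °C culture of MT-4 cells pre-infected with a 1:250 dilution of HIV-1 (IIIB). Compounds were tested as threefold dilution series in complete RPMI. Controls were no drug, mock infection and 5 uM AZT.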

The mark [3] stands for this setting: HIV-1 (IIIB), MT-4 cells, 5 days, Cell Titer Glo, read-out: EC50.
Setting [4] is: human liver microsomes 0.5 mg/mL, 1 uM compound, NADPH.
[5] abbreviates: rat liver microsomes 0.5 mg/mL, 1 uM compound, NADPH.

Read-outs that look alike come from different tables or passages of the source. Some results are limits rather than exact numbers.

With `COC(=O)N[C@H](C(=O)N[C@@H](Cc1ccc(C#Cc2ccc(N3CC4CCC(C3)N4C3COC3)nc2)cc1)[C@@H](O)CN(Cc1c(F)cc(-c2cnn(C(F)F)c2)cc1F)NC(=O)[C@@H](NC(=O)OC)C(C)(C)C(F)(F)F)C(C)(C)C(F)(F)F` [Example 71, Methyl ((5S,8S,9S,14S)-11-(4-(1-(difluoromethyl)-1H-pyrazol-4-yl)-2,6-difluorobenzyl)-16,16,16-trifluoro-9-hydroxy-15,15-dimethyl-8-(4-((6-(8-(oxetan-3-yl)-3,8-diazabicyclo[3.2.1]octan-3-yl)pyridin-3-yl)ethynyl)benzyl)-3,6,13-trioxo-5-(1,1,1-trifluoro-2-methylpropan-2-yl)-2-oxa-4,7,11,12-tetraazahexadecan-14-yl)carbamate], the “Dog. Pred. Cl.” value in data set [1] (microsomes) is given as 0.47 L/H/kg. The “Human Pred Cl.” value in data set [1] (human, microsomes) is below 0.11 L/H/kg. The “Rat. Pred. Cl.” value in data set [1] (rat, microsomes) is on record as below 0.18 L/H/kg. Also, in the data set “in vivo”, the Vd was 7.26 L/kg, the “RAT PO F” value was found to be 24.6%, the “RAT IV CL” value was 15 mL/min/kg and the “RAT IV T1/2” value amounted to 9.27 h. In addition, the EC50 in data set [2] (setting [3]) was 3.37 nM.

Turning to `COC(=O)N[C@H](C(=O)N[C@@H](Cc1ccc(C#Cc2ccc(N3CC4CCC(C3)N4C3COC3)nc2)cc1)[C@@H](O)CN(Cc1c(F)cc(-c2ccccn2)cc1Cl)NC(=O)[C@@H](NC(=O)OC)C(C)(C)C(F)(F)F)C(C)(C)C(F)(F)F` [Example 74, Methyl ((5S,8S,9S,14S)-11-(2-chloro-6-fluoro-4-(pyridin-2-yl)benzyl)-16,16,16-trifluoro-9-hydroxy-15,15-dimethyl-8-(4-((6-(8-(oxetan-3-yl)-3,8-diazabicyclo[3.2.1]octan-3-yl)pyridin-3-yl)ethynyl)benzyl)-3,6,13-trioxo-5-(1,1,1-trifluoro-2-methylpropan-2-yl)-2-oxa-4,7,11,12-tetraazahexadecan-14-yl)carbamate], the “Dog. Pred. Cl.” value in data set [1] (microsomes) is listed as 1.53 L/H/kg. Moreover, the “Human Pred Cl.” value in data set [1] (human, microsomes) came to 0.17 L/H/kg. Besides, in data set [1] (rat, microsomes), the “Rat. Pred. Cl.” value was 0.2 L/H/kg. In addition, in “in vivo”, the Vd was 5.07 L/kg, the “RAT PO F” value was found to be 35.8%, the “RAT IV CL” value was determined as 6.5 mL/min/kg and the “RAT IV T1/2” value came out at 11.6 h. Moreover, the EC50 in data set [2] (setting [3]) is 6.79 nM.

Regarding `COC(=O)N[C@H](C(=O)N[C@@H](Cc1ccc(C#Cc2cnc(N3CCN(C)C(=O)C3)nc2)cc1)[C@@H](O)CN(Cc1c(F)cc(-c2ccn(C(F)F)n2)cc1F)NC(=O)[C@@H](NC(=O)OC)C(C)(C)C(F)(F)F)C(C)(C)C(F)(F)F` [Example 159, methyl ((5S,8S,9S,14S)-11-(4-(1-(difluoromethyl)-1H-pyrazol-3-yl)-2,6-difluorobenzyl)-16,16,16-trifluoro-9-hydroxy-15,15-dimethyl-8-(4-((2-(4-methyl-3-oxopiperazin-1-yl)pyrimidin-5-yl)ethynyl)benzyl)-3,6,13-trioxo-5-(1,1,1-trifluoro-2-methylpropan-2-yl)-2-oxa-4,7,11,12-tetraazahexadecan-14-yl)carbamate], the “Human Pred Cl.” value in data set [1] (setting [4]) is given as below 0.11 L/H/kg. This compound also returned an EC50 in data set [2] of 3.83 nM.

Take `COC(=O)N[C@H](C(=O)N[C@@H](Cc1ccc(C#Cc2ccc(N3CC4CCC(C3)N4C3COC3)nc2)cc1)[C@@H](O)CN(Cc1c(F)cc(-c2nnc(C3CC3)o2)cc1F)NC(=O)[C@@H](NC(=O)OC)C(C)(C)C(F)(F)F)C(C)(C)C(F)(F)F` [Example 129, Methyl ((5S,8S,9S,14S)-11-(4-(5-cyclopropyl-1,3,4-oxadiazol-2-yl)-2,6-difluorobenzyl)-16,16,16-trifluoro-9-hydroxy-15,15-dimethyl-8-(4-((6-(8-(oxetan-3-yl)-3,8-diazabicyclo[3.2.1]octan-3-yl)pyridin-3-yl)ethynyl)benzyl)-3,6,13-trioxo-5-(1,1,1-trifluoro-2-methylpropan-2-yl)-2-oxa-4,7,11,12-tetraazahexadecan-14-yl)carbamate]: in data set [1] (human, microsomes), the “Human Pred Cl.” value was below 0.11 L/H/kg. Moreover, the EC50 in data set [2] (setting [3]) turned out to be 3.62 nM.

Consider `COC(=O)N[C@H](C(=O)N[C@@H](Cc1ccc(C#Cc2ccc(N3C[C@H]4C[C@@H]3CN4C3COC3)nc2)cc1)[C@@H](O)CN(Cc1c(F)cc(-c2ncccn2)cc1F)NC(=O)[C@@H](NC(=O)OC)C(C)(C)C(F)(F)F)C(C)(C)C(F)(F)F` [Example 93, Methyl ((5S,8S,9S,14S)-11-(2,6-difluoro-4-(pyrimidin-2-yl)benzyl)-16,16,16-trifluoro-9-hydroxy-15,15-dimethyl-8-(4-((6-((1R,4R)-5-(oxetan-3-yl)-2,5-diazabicyclo[2.2.1]heptan-2-yl)pyridin-3-yl)ethynyl)benzyl)-3,6,13-trioxo-5-(1,1,1-trifluoro-2-methylpropan-2-yl)-2-oxa-4,7,11,12-tetraazahexadecan-14-yl)carbamate], for which, in data set [1] (setting [4]), the “Human Pred Cl.” value stood at 0.19 L/H/kg. For the same compound, the “Rat. Pred. Cl.” value in data set [1] (setting [5]) is listed as 1.13 L/H/kg. The EC50 in data set [2] (setting [3]) turned out to be 2.49 nM.

As for `COC(=O)N[C@H](C(=O)NN(Cc1c(F)cc(-c2cnccn2)cc1F)C[C@H](O)[C@H](Cc1ccc(C#Cc2ccc(N3CC4CCC(C3)N4C3COC3)nc2)cc1)NC(=O)[C@@H](NC(=O)OC)C(C)(C)C(F)(F)F)C(C)(C)C` [Example 107, Methyl ((5S,8S,9S,14S)-11-(2,6-difluoro-4-(pyrazin-2-yl)benzyl)-9-hydroxy-15,15-dimethyl-8-(4-((6-(8-(oxetan-3-yl)-3,8-diazabicyclo[3.2.1]octan-3-yl)pyridin-3-yl)ethynyl)benzyl)-3,6,13-trioxo-5-(1,1,1-trifluoro-2-methylpropan-2-yl)-2-oxa-4,7,11,12-tetraazahexadecan-14-yl)carbamate], the “Human Pred Cl.” value in data set [1] (human, microsomes) was found to be 1.1 L/H/kg. For the same compound, in data set [2] (setting [3]), the EC50 came out at 2.23 nM.

Turning to `COC(=O)N[C@H](C(=O)N[C@@H](Cc1ccc(C#Cc2ccc(N3CCN(C4COC4)CC3)nc2)cc1)[C@@H](O)CN(Cc1c(F)cc(-c2cc(F)ccn2)cc1F)NC(=O)[C@@H](NC(=O)OC)C(C)(C)C(F)(F)F)C(C)(C)C(F)(F)F` [Example 98, Methyl ((5S,8S,9S,14S)-11-(2,6-difluoro-4-(4-fluoropyridin-2-yl)benzyl)-16,16,16-trifluoro-9-hydroxy-15,15-dimethyl-8-(4-((6-(4-(oxetan-3-yl)piperazin-1-yl)pyridin-3-yl)ethynyl)benzyl)-3,6,13-trioxo-5-(1,1,1-trifluoro-2-methylpropan-2-yl)-2-oxa-4,7,11,12-tetraazahexadecan-14-yl)carbamate], the “Human Pred Cl.” value in data set [1] (setting [4]) turned out to be 0.26 L/H/kg. In addition, the “Rat. Pred. Cl.” value in data set [1] (setting [5]) is listed as 0.65 L/H/kg. Besides, the EC50 in data set [2] (setting [3]) worked out at 4.97 nM.

Regarding `COC(=O)N[C@H](C(=O)NN(Cc1c(F)cc(-c2ccc(F)cn2)cc1F)C[C@H](O)[C@H](Cc1ccc(C#Cc2ccc(N3CC4CCC(C3)N4C3COC3)nc2)cc1)NC(=O)[C@@H](NC(=O)OC)C(C)(C)C(F)(F)F)C(C)(C)C` [Example 105, Methyl ((5S,8S,9S,14S)-11-(2,6-difluoro-4-(5-fluoropyridin-2-yl)benzyl)-9-hydroxy-15,15-dimethyl-8-(4-((6-(8-(oxetan-3-yl)-3,8-diazabicyclo [3.2.1]octan-3-yl)pyridin-3-yl)ethynyl)benzyl)-3,6,13-trioxo-5-(1,1,1-trifluoro-2-methylpropan-2-yl)-2-oxa-4,7,11,12-tetraazahexadecan-14-yl)carbamate], in data set [1] (human, microsomes), the “Human Pred Cl.” value is given as 0.39 L/H/kg. Further, the EC50 in data set [2] (setting [3]) worked out at 3.16 nM.

For `COC(=O)N[C@H](C(=O)N[C@@H](Cc1ccc(C#Cc2ccc(N3CC4COCC(C3)N4C)nc2)cc1)[C@@H](O)CN(Cc1c(F)cc(-c2ccn(C(F)F)n2)cc1F)NC(=O)[C@@H](NC(=O)OC)C(C)(C)C(F)(F)F)C(C)(C)C(F)(F)F` [Example 44, Methyl ((5S,8S,9S,14S)-11-(4-(1-(difluoromethyl)-1H-pyrazol-3-yl)-2,6-difluorobenzyl)-16,16,16-trifluoro-9-hydroxy-15,15-dimethyl-8-(4-((6-(9-methyl-3-oxa-7,9-diazabicyclo[3.3.1]nonan-7-yl)pyridin-3-yl)ethynyl)benzyl)-3,6,13-trioxo-5-(1,1,1-trifluoro-2-methylpropan-2-yl)-2-oxa-4,7,11,12-tetraazahexadecan-14-yl)carbamate], the “Human Pred Cl.” value in data set [1] (human, microsomes) turned out to be 0.13 L/H/kg. For the same compound, the “Rat. Pred. Cl.” value in data set [1] (rat, microsomes) was determined as 2.54 L/H/kg. In addition, the EC50 in data set [2] (setting [3]) is 3.97 nM.

For orientation: Vd means a proportionality between amount in the body and measured concentration, not a real space. Read a low Vd as confinement near the circulation. Broadly, the EC50 is the midpoint of the concentration-response curve.
